Source: patent US20230085307A1, “PYRIDAZINONE COMPOUND AND HERBICIDE” (NISSAN CHEMICAL CORPORATION, priority 2019, published 2023)

What was measured:
redroot pigweed [1] = assay: Test Example 4: herbicidal effect by soil treatment (Table 19, symbol N); assay type: in vivo, redroot pigweed (Amaranthus retroflexus); conditions: amount of applied herbicide 320 g/ha
Method in brief: (§1)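 In this soil treatment, the formulated compound reached the seeds only through the soil: seeds were buried about 1.5 cm deep in sterilized diluvial soil, then the diluted emulsion was sprayed over the surface. After three weeks at 25° C. to 30° C. in a greenhouse, effects were graded on criteria from an earlier test.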

rice flat sedge = assay: Test Example 3: herbicidal effect by foliage application, Wagner pot (Table 18, symbol E); assay type: in vivo, rice flat sedge (Cyperus iria); conditions: 320 g/ha
Method in brief: (§2)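 Plants were sown in alluvial soil held under 0.1–0.5 cm standing water and grown 14 days in a greenhouse at 25–30 °C. An emulsifiable formulation, water-diluted to the set dose, was then sprayed onto the foliage, and effects were scored three weeks later using previously defined criteria.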

chickweed [2] = assay: Test Example 4: herbicidal effect by soil treatment (Table 19, symbol P); assay type: in vivo, common chickweed (Stellaria media); conditions: amount of applied herbicide 320 g/ha
Method in brief: as §1

Japanese bulrush = assay: Test Example 1: herbicidal activity, application before weed generation under submerged conditions (Table 16, symbol B); assay type: in vivo, Japanese bulrush (Schoenoplectus juncoides); conditions: amount of applied herbicide 320 g/ha
Method in brief: (§3)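 Emulsion formulation, water-diluted to set dose, was put onto the flooded surface (4 cm depth, alluvial soil) the same day weeds were sown and 2.5-leaf rice transplanted. After 3 weeks at 25-30 °C under glass, each species was rated 0 (≤5% kill) to 5 (≥90% kill).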

green foxtail [3] = assay: Test Example 4: herbicidal effect by soil treatment (Table 19, symbol G); assay type: in vivo, green foxtail (Setaria viridis); conditions: amount of applied herbicide 320 g/ha
Method in brief: as §1

Chinese sprangletop = assay: Test Example 3: herbicidal effect by foliage application, Wagner pot (Table 18, symbol D); assay type: in vivo, chinese sprangletop (Leptochloa chinensis); conditions: 320 g/ha
Method in brief: as §2

persian speedwell [4] = assay: Test Example 4: herbicidal effect by soil treatment (Table 19, symbol R); assay type: in vivo, Persian speedwell (Veronica persica); conditions: amount of applied herbicide 320 g/ha
Method in brief: as §1

persian speedwell [5] = assay: Test Example 5: herbicidal effect by foliage application, plastic box (Table 20, symbol R); assay type: in vivo, Persian speedwell (Veronica persica); conditions: 320 g/ha, foliage application after 14-day growth, evaluated three weeks after application
Method in brief: (§4)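 Plants were sown into sterilized diluvial soil under about 1.5 cm cover and kept in a greenhouse at 25° C. to 30° C. Fourteen days on, foliage received an even spray of the diluted emulsion. Herbicidal or crop effect was judged three weeks afterwards.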

oval-leafed pondweed = assay: Test Example 1: herbicidal activity, application before weed generation under submerged conditions (Table 16, symbol C); assay type: in vivo, oval-leafed pondweed (Monochoria vaginalis); conditions: amount of applied herbicide 320 g/ha
Method in brief: as §3

Italian ryegrass [6] = assay: Test Example 4: herbicidal effect by soil treatment (Table 19, symbol K); assay type: in vivo, Italian ryegrass (Lolium multiflorum); conditions: amount of applied herbicide 320 g/ha
Method in brief: as §1

southern crabgrass [7] = assay: Test Example 4: herbicidal effect by soil treatment (Table 19, symbol F); assay type: in vivo, southern crabgrass (Digitaria ciliaris); conditions: amount of applied herbicide 320 g/ha
Method in brief: as §1

windgrass [8] = assay: Test Example 5: herbicidal effect by foliage application, plastic box (Table 20, symbol L); assay type: in vivo, windgrass (Apera spica-venti); conditions: 320 g/ha, foliage application after 14-day growth, evaluated three weeks after application
Method in brief: as §4

blackgrass [9] = assay: Test Example 5: herbicidal effect by foliage application, plastic box (Table 20, symbol J); assay type: in vivo, blackgrass (Alopecurus myosuroides); conditions: 320 g/ha, foliage application after 14-day growth, evaluated three weeks after application
Method in brief: as §4

wild oat [10] = assay: Test Example 5: herbicidal effect by foliage application, plastic box (Table 20, symbol I); assay type: in vivo, wild oat (Avena fatua); conditions: 320 g/ha, foliage application after 14-day growth, evaluated three weeks after application
Method in brief: as §4

velvetleaf [11] = assay: Test Example 4: herbicidal effect by soil treatment (Table 19, symbol M); assay type: in vivo, velvetleaf (Abutilon theophrasti); conditions: amount of applied herbicide 320 g/ha
Method in brief: as §1

late watergrass = assay: Test Example 1: herbicidal activity, application before weed generation under submerged conditions (Table 16, symbol A); assay type: in vivo, late watergrass (Echinochloa oryzicola); conditions: amount of applied herbicide 320 g/ha
Method in brief: as §3

Italian ryegrass [12] = assay: Test Example 5: herbicidal effect by foliage application, plastic box (Table 20, symbol K); assay type: in vivo, Italian ryegrass (Lolium multiflorum); conditions: 320 g/ha, foliage application after 14-day growth, evaluated three weeks after application
Method in brief: as §4

barnyard grass [13] = assay: Test Example 3: herbicidal effect by foliage application, Wagner pot (Table 18, symbol H); assay type: in vivo, barnyard grass (Echinochloa crus-galli); conditions: 320 g/ha
Method in brief: as §2

lambsquarters [14] = assay: Test Example 4: herbicidal effect by soil treatment (Table 19, symbol O); assay type: in vivo, lambsquarters (Chenopodium album); conditions: amount of applied herbicide 320 g/ha
Method in brief: as §1

lambsquarters [15] = assay: Test Example 5: herbicidal effect by foliage application, plastic box (Table 20, symbol O); assay type: in vivo, lambsquarters (Chenopodium album); conditions: 320 g/ha, foliage application after 14-day growth, evaluated three weeks after application
Method in brief: as §4

barnyard grass [16] = assay: Test Example 4: herbicidal effect by soil treatment (Table 19, symbol H); assay type: in vivo, barnyard grass (Echinochloa crus-galli); conditions: amount of applied herbicide 320 g/ha
Method in brief: as §1

barnyard grass [17] = assay: Test Example 5: herbicidal effect by foliage application, plastic box (Table 20, symbol H); assay type: in vivo, barnyard grass (Echinochloa crus-galli); conditions: 320 g/ha, foliage application after 14-day growth, evaluated three weeks after application
Method in brief: as §4

southern crabgrass [18] = assay: Test Example 5: herbicidal effect by foliage application, plastic box (Table 20, symbol F); assay type: in vivo, southern crabgrass (Digitaria ciliaris); conditions: 320 g/ha, foliage application after 14-day growth, evaluated three weeks after application
Method in brief: as §4

windgrass [19] = assay: Test Example 4: herbicidal effect by soil treatment (Table 19, symbol L); assay type: in vivo, windgrass (Apera spica-venti); conditions: amount of applied herbicide 320 g/ha
Method in brief: as §1

wild oat [20] = assay: Test Example 4: herbicidal effect by soil treatment (Table 19, symbol I); assay type: in vivo, wild oat (Avena fatua); conditions: amount of applied herbicide 320 g/ha
Method in brief: as §1

green foxtail [21] = assay: Test Example 5: herbicidal effect by foliage application, plastic box (Table 20, symbol G); assay type: in vivo, green foxtail (Setaria viridis); conditions: 320 g/ha, foliage application after 14-day growth, evaluated three weeks after application
Method in brief: as §4

redroot pigweed [22] = assay: Test Example 5: herbicidal effect by foliage application, plastic box (Table 20, symbol N); assay type: in vivo, redroot pigweed (Amaranthus retroflexus); conditions: 320 g/ha, foliage application after 14-day growth, evaluated three weeks after application
Method in brief: as §4

chickweed [23] = assay: Test Example 5: herbicidal effect by foliage application, plastic box (Table 20, symbol P); assay type: in vivo, common chickweed (Stellaria media); conditions: 320 g/ha, foliage application after 14-day growth, evaluated three weeks after application
Method in brief: as §4

velvetleaf [24] = assay: Test Example 5: herbicidal effect by foliage application, plastic box (Table 20, symbol M); assay type: in vivo, velvetleaf (Abutilon theophrasti); conditions: 320 g/ha, foliage application after 14-day growth, evaluated three weeks after application
Method in brief: as §4

blackgrass [25] = assay: Test Example 4: herbicidal effect by soil treatment (Table 19, symbol J); assay type: in vivo, blackgrass (Alopecurus myosuroides); conditions: amount of applied herbicide 320 g/ha
Method in brief: as §1

Row | SMILES | Herbicidal effect by soil treatment, N: redroot pigweed (redroot pigweed [1]) | herbicidal effect on rice flat sedge (E) (rice flat sedge) | Herbicidal effect by soil treatment, P: chickweed (chickweed [2]) | Herbicidal effect, B: Japanese bulrush (Japanese bulrush) | Herbicidal effect by soil treatment, G: green foxtail (green foxtail [3]) | herbicidal effect on Chinese sprangletop (D) (Chinese sprangletop) | Herbicidal effect by soil treatment, R: persian speedwell (persian speedwell [4]) | herbicidal effect on R: persian speedwell (evaluation grade 0-5) (persian speedwell [5]) | Herbicidal effect, C: oval-leafed pondweed (oval-leafed pondweed) | Herbicidal effect by soil treatment, K: Italian ryegrass (Italian ryegrass [6]) | Herbicidal effect by soil treatment, F: southern crabgrass (southern crabgrass [7]) | herbicidal effect on L: windgrass (evaluation grade 0-5) (windgrass [8]) | herbicidal effect on J: blackgrass (evaluation grade 0-5) (blackgrass [9]) | herbicidal effect on I: wild oat (evaluation grade 0-5) (wild oat [10]) | Herbicidal effect by soil treatment, M: velvetleaf (velvetleaf [11]) | Herbicidal effect, A: late watergrass (late watergrass) | herbicidal effect on K: Italian ryegrass (evaluation grade 0-5) (Italian ryegrass [12]) | herbicidal effect on barnyard grass (H) (barnyard grass [13]) | Herbicidal effect by soil treatment, O: lambsquarters (lambsquarters [14]) | herbicidal effect on O: lambsquarters (evaluation grade 0-5) (lambsquarters [15]) | other results
1 | CCOc1cc(F)ccc1-c1sc2c(Cl)cccc2c1-c1c(O)c(C)nn(C)c1=O [4-035] | 3 (Herbicidal rate of 40% or more and less than 70%) | 5 (Herbicidal rate of 90% or more (almost completely withered)) | 3 (Herbicidal rate of 40% or more and less than 70%) | 0 (Herbicidal rate of 5% or less (almost no effect)) | 3 (Herbicidal rate of 40% or more and less than 70%) | 3 (Herbicidal rate of 40% or more and less than 70%) | 1 (Herbicidal rate of 5% or more and less than 20%) | 5 (Herbicidal rate of 90% or more (almost completely withered)) | 0 (Herbicidal rate of 5% or less (almost no effect)) | 0 (Herbicidal rate of 5% or less (almost no effect)) | 4 (Herbicidal rate of 70% or more and less than 90%) | 5 (Herbicidal rate of 90% or more (almost completely withered)) | 5 (Herbicidal rate of 90% or more (almost completely withered)) | 0 (Herbicidal rate of 5% or less (almost no effect)) | 2 (Herbicidal rate of 20% or more and less than 40%) | 2 (Herbicidal rate of 20% or more and less than 40%) | 4 (Herbicidal rate of 70% or more and less than 90%) | 5 (Herbicidal rate of 90% or more (almost completely withered)) | 0 (Herbicidal rate of 5% or less (almost no effect)) | 4 (Herbicidal rate of 70% or more and less than 90%) | Herbicidal effect by soil treatment, H: barnyard grass (barnyard grass [16]): 5 (Herbicidal rate of 90% or more (almost completely withered)); herbicidal effect on H: barnyard grass (evaluation grade 0-5) (barnyard grass [17]): 5 (Herbicidal rate of 90% or more (almost completely withered)); herbicidal effect on F: southern crabgrass (evaluation grade 0-5) (southern crabgrass [18]): 5 (Herbicidal rate of 90% or more (almost completely withered)); Herbicidal effect by soil treatment, L: windgrass (windgrass [19]): 0 (Herbicidal rate of 5% or less (almost no effect)); Herbicidal effect by soil treatment, I: wild oat (wild oat [20]): 0 (Herbicidal rate of 5% or less (almost no effect)); herbicidal effect on G: green foxtail (evaluation grade 0-5) (green foxtail [21]): 5 (Herbicidal rate of 90% or more (almost completely withered)); herbicidal effect on N: redroot pigweed (evaluation grade 0-5) (redroot pigweed [22]): 5 (Herbicidal rate of 90% or more (almost completely withered)); herbicidal effect on P: chickweed (evaluation grade 0-5) (chickweed [23]): 4 (Herbicidal rate of 70% or more and less than 90%); herbicidal effect on M: velvetleaf (evaluation grade 0-5) (velvetleaf [24]): 4 (Herbicidal rate of 70% or more and less than 90%); Herbicidal effect by soil treatment, J: blackgrass (blackgrass [25]): 0 (Herbicidal rate of 5% or less (almost no effect))
2 | CCCC(=O)Oc1c(C)nn(C)c(=O)c1-c1c(-c2ccc(OC(F)(F)F)cc2)sc2c(F)cccc12 [4-049] | 4 (Herbicidal rate of 70% or more and less than 90%) | 5 (Herbicidal rate of 90% or more (almost completely withered)) | 3 (Herbicidal rate of 40% or more and less than 70%) | 0 (Herbicidal rate of 5% or less (almost no effect)) | 0 (Herbicidal rate of 5% or less (almost no effect)) | 3 (Herbicidal rate of 40% or more and less than 70%) | 4 (Herbicidal rate of 70% or more and less than 90%) | 5 (Herbicidal rate of 90% or more (almost completely withered)) | 0 (Herbicidal rate of 5% or less (almost no effect)) | 0 (Herbicidal rate of 5% or less (almost no effect)) | 0 (Herbicidal rate of 5% or less (almost no effect)) | 0 (Herbicidal rate of 5% or less (almost no effect)) | 0 (Herbicidal rate of 5% or less (almost no effect)) | 0 (Herbicidal rate of 5% or less (almost no effect)) | 0 (Herbicidal rate of 5% or less (almost no effect)) | 3 (Herbicidal rate of 40% or more and less than 70%) | 0 (Herbicidal rate of 5% or less (almost no effect)) | 5 (Herbicidal rate of 90% or more (almost completely withered)) | 3 (Herbicidal rate of 40% or more and less than 70%) | 3 (Herbicidal rate of 40% or more and less than 70%) | Herbicidal effect by soil treatment, H: barnyard grass (barnyard grass [16]): 0 (Herbicidal rate of 5% or less (almost no effect)); herbicidal effect on H: barnyard grass (evaluation grade 0-5) (barnyard grass [17]): 5 (Herbicidal rate of 90% or more (almost completely withered)); herbicidal effect on F: southern crabgrass (evaluation grade 0-5) (southern crabgrass [18]): 0 (Herbicidal rate of 5% or less (almost no effect)); Herbicidal effect by soil treatment, L: windgrass (windgrass [19]): 0 (Herbicidal rate of 5% or less (almost no effect)); Herbicidal effect by soil treatment, I: wild oat (wild oat [20]): 0 (Herbicidal rate of 5% or less (almost no effect)); herbicidal effect on G: green foxtail (evaluation grade 0-5) (green foxtail [21]): 4 (Herbicidal rate of 70% or more and less than 90%); herbicidal effect on N: redroot pigweed (evaluation grade 0-5) (redroot pigweed [22]): 5 (Herbicidal rate of 90% or more (almost completely withered)); herbicidal effect on P: chickweed (evaluation grade 0-5) (chickweed [23]): 5 (Herbicidal rate of 90% or more (almost completely withered)); herbicidal effect on M: velvetleaf (evaluation grade 0-5) (velvetleaf [24]): 5 (Herbicidal rate of 90% or more (almost completely withered)); Herbicidal effect by soil treatment, J: blackgrass (blackgrass [25]): 0 (Herbicidal rate of 5% or less (almost no effect))
